# Columns and labels:
# [1] = target: T1, GDP-loaded KRAS4b (amino acids 1-169) G12C/C118S protein (Homo sapiens, UniProt P01116, C118S/G12C); assay: Covalent cysteine 12 modification by MALDI-TOF MS, GDP-loaded KRAS G12C; format: binding; settings: 15 minutes reaction time point
# T1 construct: KRAS4b (amino acids 1-169) G12C/C118S protein; made in house
# Experimental: (§1) Biological Example 1: Covalent Cysteine 12 Modification Analysis Using Matrix Assisted Laser Desorption Ionization-Time of Flight Mass Spectrometry (MALDI-TOF MS)
# (§2) MALDI-TOF MS analysis was performed using 1 μM protein (KRAS G12C), and 1:2.5 protein to compound ratio.
# (§3) Reaction: 1 μM of GppNHp, GTP, or GDP-loaded KRAS4b (amino acids 1-169) G12C/C118S protein (produced in-house by Protein Expression Laboratory, FNLCR/Leidos Biomed) in 20 mM 4-(2-hydroxyethyl)-1-piperazineethanesulfonic acid (HEPES) buffer containing 150 mM NaCl, 1 mM MgCl2, pH 7.3 was prepared freshly before assay. Twelve-μL aliquots of protein were dispensed onto low volume 384-well plate, then 30 nL of tested compounds from 1 mM DMSO stocks were added to appropriate wells using ECHO 555 acoustic liquid handler (Labcyte Inc.). For each reaction/assay, three blanks were prepared by mixing 12 μL of protein solution with 30 nL DMSO. The contents of the wells were carefully mixed by aspiration, and then each plate was sealed with an adhesive cover, centrifuged at 2000 g for 1 minute, and kept in the dark at room temperature until 5 min, 15 min, 30 min, 2 h, or 6 h collections.
# (§4) Target pretreatment: Before each assay MALDI target (Bruker MPT 384 ground steel BC) was pre-treated by pipetting on each spot 0.75 μL of saturated sinapinic acid in acetonitrile (ACN).
# (§5) Sample preparation: At collection time point, 2 μL of reaction mixtures were pipetted out into 15 μL MALDI matrix solution (saturated solution of sinapinic acid in 1:1 ACN:water solution containing 0.75% trifluoroacetic acid (TFA)) deposited on 384 well polypropylene plate. Resulting solution was mixed by aspiration, centrifuged at 2000 g for 1 minute, then 1.5 μL aliquots were dispensed on pre-treated MALDI target using Beckman Coulter Biomek FXP 96/384-Span-8 Laboratory Automation Workstation. Finally, the MALDI target was dried under mild vacuum to produce spots with fine crystalline structure.
# (§6) Measurements: MALDI-TOF measurements were performed on a Bruker Daltonics rapiflex Tissuetyper TOF-TOF mass spectrometer using linear mode and mass range from 18.6 to 21.6 kDa. Detector gain was set to 3.3×(483 V), sample rate to 5 GS/s, real time smoothing to medium (175 MHz), laser smart beam pattern was set to: “MS Thin Layer M5”, and the laser frequency was 10000 Hz. Spectra were automatically collected using custom AutoXecute method. Laser power was auto adjusted using fuzzy control. The peak selection range was set to be between 19000 and 21500 Da. Peak evaluation uses half width parameter set to be smaller than 40 Da for processed spectrograms (centroid peak detection; smoothed by SavitzkyGolay algorithm using 7 m/z width and 2 cycles; baseline was subtracted using median algorithm with flatness 1 and median level 0.01). Fuzzy control used Proteins/Oligonucleotides protocol with minimum half width 1/10 times above threshold. Up to 40000 satisfactory shots were collected in 10000 shot steps. Dynamic termination was implemented to finish data collection when peak signal/noise ratio was reaching value of 50.
# (§7) Spectra processing: Spectra were smoothed by SavitzkyGolay algorithm using 7 m/z width and three cycles. Centroid peak detection algorithm was used with signal to noise threshold set to 6, relative intensity threshold 4%, peak width 10 m/z and median baseline subtraction using flatness of 1 and median level of 0.01. Peak intensity and area under the peak were evaluated and recorded for all peaks between 19,300 Da and 21,550 Da.
# (§8) Calculation of percent modification: Percent modification was calculated as a ratio of peak height for protein modified by compound to sum of peak height of remaining protein plus peak height for protein modified by compound. If multiple modifications were observed each was calculated as a ratio of peak height for given modification versus sum of peak heights for all observed protein species. Data reported in Table 4 are from 15 minutes reaction time point. […]
# [2] = target: T2, GppNHp-loaded KRAS4b (amino acids 1-169) G12C/C118S protein (Homo sapiens, UniProt P01116, C118S/G12C); assay: Covalent cysteine 12 modification by MALDI-TOF MS, GppNHp-loaded KRAS G12C; format: binding; settings: 15 minutes reaction time point
# T2 construct: KRAS4b (amino acids 1-169) G12C/C118S protein; made in house
# Experimental: as §1, §2, §3, §4, §5, §6, §7, §8
# [3] = target: T3, GTP-loaded KRAS4b (amino acids 1-169) G12C/C118S protein (Homo sapiens, UniProt P01116, C118S/G12C); assay: Covalent cysteine 12 modification by MALDI-TOF MS, GTP-loaded KRAS G12C; format: binding; settings: 15 minutes reaction time point
# T3 construct: KRAS4b (amino acids 1-169) G12C/C118S protein; made in house
# Experimental: as §1, §2, §3, §4, §5, §6, §7, §8
# pERK in NCI-H358 cells = assay: Cell-based pERK HTRF assay (pERK inhibition in H358 cells); settings: 30 min incubation
# Experimental: Biological Example 3: Cell-Based pERK HTRF Assay
# pERK assays (Perkin Elmer) were used to determine the effectiveness of compounds of the present disclosure in disrupting KRAS G12C protein/effector signaling in cells.
# On Day 1, cells (NCI-H358) were seeded into 96-well plates at 4×10^4 cells/well in complete growth media (RPMI, 10% FBS).
# On Day 2, cells were treated with compounds at 0.25% DMSO. The source plate was created with compounds diluted in media at 5-fold the final assay concentration. The compounds were run in a 9-point concentration curve starting at 75 μM, with a 3-fold dilution between concentrations. 20 μL was transferred onto the cell plates (final volume in wells was 100 μL). Plates were harvested after 30 min incubation by aspirating media and adding kit-supplied 1× supplemented lysis buffer to all wells (75 μl per well). Plates were then placed on a plate shaker and incubated at 850 rpm for an additional 30 min.
# Antibody mixture solution was prepared by diluting aliquoted d2 and Eu Cryptate antibodies 1:20 in kit supplied detection buffer, then mixed the diluted antibodies solutions (1:1 v:v). 4 μL of this solution was then added to a 384-well detection plate (Perkin Elmer; 6008230).
# Samples were homogenized by pipetting up and down and then transferred (16 μL of cell lysates) from the 96-well cell culture plate to two wells of the HTRF 384-well detection plate containing the antibody solution. Plates were centrifuged (524 g for […]) and allowed to incubate between 4 and 24 h at room temperature. Maximum signal is reached after 4 h incubation time and remains stable over a period of 24 hours. Therefore, readings can be made between 4 and 24 h of incubation. Plates were centrifuged again (524 g for 1 min), and analyzed on the En Vision plate reader using the following settings: Excitation 320 nm, Bandwidth 75 nm; Emission 615 nm, Bandwidth 85 nm; Gain 100%; Flashes 100; Lag 60 μs.
# The percent of modification of GppNHp, GTP, or GDP loaded KRAS G12C by MALDI-TOF MS, biochemical Raf1 RBD-KRAS G12C-GppNHp disruption assay IC50, and pERK inhibition IC50 of selected compounds described herein are shown in Table 4. For percent of modification at 15 minutes (MALDI-TOF MS) of GppNHp, GTP, or GDP loaded KRAS G12C: A: percent of modification ≥70%; B: 50≤percent of modification <70%; C: 10%≤percent of modification <50%; D: percent of modification <10%. […] For pERK inhibition in H358 cell assay: A: IC50≤0.1 μM; B: 0.1 μM<IC50≤1 μM; C: IC50>1 μM. Blanks in the table represent that compound was not tested in the indicated assay.
Structure (SMILES),GDP-KRAS G12C percent of modification [1],GppNHp-KRAS G12C percent of modification [2],GTP-KRAS G12C percent of modification [3],IC50 (pERK in NCI-H358 cells),"IC50 (pERK in NCI-H358 cells; Homo sapiens, NCI-H358, 0.5 h)"
"C[C@@H]1[C@H](N(C)c2nc(OC[C@@]34CCCN3C[C@H](F)C4)nc3c(F)c(-c4ccc(F)c5sc(N)c(C#N)c45)c(C(F)(F)F)cc23)CCN1C(=O)[C@H](F)Cl (atropisomer, axis not shown; (aS)) [Compound 183, 2-amino-4-((S)-4-(((2R,3R)-1-((R)-2-chloro-2-fluoroacetyl)-2-methylpyrrolidin-3-yl)(methyl)amino)-8-fluoro-2-(((2R,7aS)-2-fluorotetrahydro-1H-pyrrolizin-7a(5H)-yl)methoxy)-6-(trifluoromethyl)quinazolin-7-yl)-7-fluorobenzo[b]thiophene-3-carbonitrile]",A (percent of modification ≥70%),A (percent of modification ≥70%),A (percent of modification ≥70%),< 100 nM,
CCN(c1nc(OC[C@@H]2C[C@@H](OC)CN2C)nc2c(F)c(-c3ccc(F)c4sc(N)c(C#N)c34)c(C(F)(F)F)cc12)[C@@H]1CCN(C(=O)[C@@H](F)Cl)[C@@H]1C [Compound 178],D (percent of modification <10%),D (percent of modification <10%),D (percent of modification <10%),,100 to 1000 nM
CCN(c1nc(OC[C@@H]2C[C@@H](OC)CN2C)nc2c(F)c(-c3ccc(F)c4sc(N)c(C#N)c34)c(C(F)(F)F)cc12)[C@@H]1CCN(C(=O)[C@H](F)Cl)[C@@H]1C [Compound 179],C (10%≤percent of modification <50%),B (50≤percent of modification <70%),C (10%≤percent of modification <50%),,< 100 nM
C[C@@H]1CN(c2nc(OC[C@@]34CCCN3C[C@H](F)C4)nc3c(F)c(-c4ccc(F)c5sc(N)c(C#N)c45)c(C(F)(F)F)cc23)[C@@H](C)CN1C(=O)[C@@H](F)Cl [Compound 180],C (10%≤percent of modification <50%),D (percent of modification <10%),D (percent of modification <10%),,< 100 nM
C[C@@H]1CN(c2nc(OC[C@@]34CCCN3C[C@H](F)C4)nc3c(F)c(-c4ccc(F)c5sc(N)c(C#N)c45)c(C(F)(F)F)cc23)[C@@H](C)CN1C(=O)[C@H](F)Cl [Compound 181],D (percent of modification <10%),D (percent of modification <10%),D (percent of modification <10%),,100 to 1000 nM
CCN(c1nc(OC[C@@]23CCCN2C[C@H](F)C3)nc2c(F)c(-c3ccc(F)c4sc(N)c(C#N)c34)c(C(F)(F)F)cc12)[C@H]1CCN(C(=O)[C@@H](F)Cl)C1 [Compound 186],C (10%≤percent of modification <50%),C (10%≤percent of modification <50%),B (50≤percent of modification <70%),,< 100 nM
CCN(c1nc(OC[C@@]23CCCN2C[C@H](F)C3)nc2c(F)c(-c3ccc(F)c4sc(N)c(C#N)c34)c(C(F)(F)F)cc12)[C@H]1CCN(C(=O)[C@H](F)Cl)C1 [Compound 187],B (50≤percent of modification <70%),B (50≤percent of modification <70%),B (50≤percent of modification <70%),,< 100 nM
"C[C@@H]1[C@H](N(C)c2nc(OC[C@@]34CCCN3C[C@H](F)C4)nc3c(F)c(-c4ccc(F)c5sc(N)c(C#N)c45)c(C(F)(F)F)cc23)CCN1C(=O)/C=C/c1nc(C(C)(F)F)no1 [Compound 188, 2-amino-4-(4-(((2R,3R)-1-((E)-3-(3-(1,1-difluoroethyl)-1,2,4-oxadiazol-5-yl)acryloyl)-2-methylpyrrolidin-3-yl)(methyl)amino)-8-fluoro-2-(((2R,7aS)-2-fluorotetrahydro-1H-pyrrolizin-7a(5H)-yl)methoxy)-6-(trifluoromethyl)quinazolin-7-yl)-7-fluorobenzo[b]thiophene-3-carbonitrile]",B (50≤percent of modification <70%),B (50≤percent of modification <70%),C (10%≤percent of modification <50%),,< 100 nM
CO[C@@H]1C[C@@H](COc2nc(N(C)[C@@H]3CCN(C(=O)/C=C/c4nc(C(C)(F)F)no4)[C@@H]3C)c3cc(C(F)(F)F)c(-c4ccc(F)c5sc(N)c(C#N)c45)c(F)c3n2)N(C)C1 [Compound 189],B (50≤percent of modification <70%),B (50≤percent of modification <70%),C (10%≤percent of modification <50%),,< 100 nM
